# Test results taken from ChEMBL document CHEMBL1201862, “PubChem BioAssay data set” (2004).
#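 The compound was tested at five concentrations on cells cultured in 96-well plates, with a 48-hour exposure period. GI50: concentration for 50% inhibition of growth.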 Activity calls are given as the source filed them. Cut-off read from the data, not from the text of the source: active = GI50 up to about 1.1 µM and inactive = higher.
# Key:
# Test in all cases: NCI anticancer screen, dose series, 48 h
# [1] = tested on: LOX IMVI
# [2] = tested on: DU-145
# [3] = tested on: SK-OV-3
# [4] = tested on: A498
# [5] = tested on: DMS-273
# [6] = tested on: EKVX
# [7] = tested on: SF-295
# [8] = tested on: HL-60
# [9] = tested on: KM-20L2
# [10] = tested on: NCI-H522
# [11] = tested on: NCI-H226
# [12] = tested on: Malme-3M
# [13] = tested on: UACC-62
# [14] = tested on: HT-29
# [15] = tested on: COLO 205
# [16] = tested on: HOP-62
# [17] = tested on: HCT-116
# [18] = tested on: MDA-N
# [19] = tested on: 786-0
# [20] = tested on: T47D
# [21] = tested on: HOP-18
# [22] = tested on: HCC 2998
# [23] = tested on: MDA-MB-231
# [24] = tested on: RXF 393
# [25] = tested on: SN12C
# [26] = tested on: ACHN
# [27] = tested on: PC-3
# [28] = tested on: UO-31
# [29] = tested on: NCI-H23
# [30] = tested on: U-251
# [31] = tested on: SNB-19
# [32] = tested on: HCT-15
# [33] = tested on: SK-MEL-5
# [34] = tested on: SF-268
# [35] = tested on: KM12
# [36] = tested on: SW-620
# [37] = tested on: HOP-92
# [38] = tested on: OVCAR-5
# [39] = tested on: SK-MEL-2
# [40] = tested on: CAKI-1
# [41] = tested on: TK-10
# [42] = tested on: MDA-MB-435
# [43] = tested on: IGROV-1
# [44] = tested on: DLD-1
# [45] = tested on: M14
# [46] = tested on: SNB-75
# [47] = tested on: XF498
# [48] = tested on: A549
# [49] = tested on: OVCAR-8
# [50] = tested on: Hs-578T
# [51] = tested on: SF-539
# [52] = tested on: SNB-78
# [53] = tested on: NCI/ADR-RES
# [54] = tested on: OVCAR-4
# [55] = tested on: MCF7
# [56] = tested on: OVCAR-3
# [57] = tested on: RXF 631
# [58] = tested on: RPMI-8226
# [59] = tested on: LXFL 529
# [60] = tested on: BT-549
# [61] = tested on: NCI-H460
# [62] = tested on: SR
# [63] = tested on: M19-MEL
# [64] = tested on: K562
# [65] = tested on: SK-MEL-28
# [66] = tested on: UACC-257
# [67] = tested on: CCRF-CEM
# [68] = tested on: MOLT-4
# [69] = tested on: DMS-114
structure (smiles),measurement,setting,value
O=[N+]([O-])c1cccc2nc3ccccc3c(NCCN(CCO)CCO)c12,GI50,[1],7.01 nM (active)
same,GI50,[2],2.08 nM (active)
same,GI50,[3],9.89 nM (active)
same,GI50,[4],5.01 nM (active)
same,GI50,[5],12 nM (active)
same,GI50,[6],7.31 nM (active)
same,GI50,[7],6.98 nM (active)
same,GI50,[8],10.4 nM (active)
same,GI50,[9],5.09 nM (active)
same,GI50,[10],1.16 nM (active)
same,GI50,[11],1.02 nM (active)
same,GI50,[12],2.96 nM (active)
same,GI50,[13],3.96 nM (active)
same,GI50,[14],2.56 nM (active)
same,GI50,[15],0.904 nM (active)
same,GI50,[16],2.82 nM (active)
same,GI50,[17],1.14 nM (active)
same,GI50,[18],1.43 nM (active)
same,GI50,[19],4.29 nM (active)
same,GI50,[20],3.67 nM (active)
same,GI50,[21],44.3 nM (active)
same,GI50,[22],2.35 nM (active)
same,GI50,[23],2.68 nM (active)
same,GI50,[24],1.21 nM (active)
same,GI50,[25],5.37 nM (active)
same,GI50,[26],3.61 nM (active)
same,GI50,[27],2.13 nM (active)
same,GI50,[28],39.7 nM (active)
same,GI50,[29],2.22 nM (active)
same,GI50,[30],3.91 nM (active)
same,GI50,[31],7.83 nM (active)
same,GI50,[32],10.8 nM
same,GI50,[33],1.92 nM (active)
same,GI50,[34],4.23 nM (active)
same,GI50,[35],4.98 nM (active)
same,GI50,[36],0.774 nM (active)
same,GI50,[37],4.47 nM (active)
same,GI50,[38],5.01 nM (active)
same,GI50,[39],5.27 nM (active)
same,GI50,[40],6.4 nM (active)
same,GI50,[41],8.36 nM (active)
same,GI50,[42],1.41 nM (active)
same,GI50,[43],5.78 nM (active)
same,GI50,[44],6.9 nM (active)
same,GI50,[45],3.38 nM (active)
same,GI50,[46],7.26 nM (active)
same,GI50,[47],5.12 nM (active)
same,GI50,[48],2.72 nM (active)
same,GI50,[49],3.51 nM (active)
same,GI50,[50],5.15 nM (active)
same,GI50,[51],6.89 nM (active)
same,GI50,[52],22.1 nM (active)
same,GI50,[53],128 nM (active)
same,GI50,[54],4.53 nM (active)
same,GI50,[55],2.06 nM (active)
same,GI50,[56],5.36 nM (active)
same,GI50,[57],4.57 nM (active)
same,GI50,[58],2.46 nM (active)
same,GI50,[59],18.7 nM (active)
same,GI50,[60],3.08 nM (active)
same,GI50,[61],0.815 nM (active)
same,GI50,[62],1.23 nM (active)
CCCCCCCCCCCCNC1(C)CNCCCNCCNCCCNC1,GI50,[1],1840 nM (inactive)
same,GI50,[3],1820 nM (inactive)
same,GI50,[5],475 nM (active)
same,GI50,[6],3560 nM (inactive)
same,GI50,[63],1720 nM (inactive)
same,GI50,[7],1510 nM (inactive)
same,GI50,[8],726 nM (active)
same,GI50,[9],1660 nM (inactive)
same,GI50,[10],1820 nM (inactive)
same,GI50,[11],1510 nM (inactive)
same,GI50,[64],1890 nM (inactive)
same,GI50,[12],2010 nM (inactive)
same,GI50,[13],1820 nM (inactive)
same,GI50,[14],1580 nM (inactive)
same,GI50,[15],1740 nM (inactive)
same,GI50,[16],1980 nM (inactive)
same,GI50,[17],1320 nM (inactive)
same,GI50,[19],1750 nM (inactive)
same,GI50,[65],1870 nM (inactive)
same,GI50,[21],1680 nM (inactive)
same,GI50,[22],1790 nM (inactive)
same,GI50,[24],1560 nM (inactive)
same,GI50,[25],1670 nM (inactive)
same,GI50,[26],1780 nM (inactive)
same,GI50,[28],2290 nM (inactive)
same,GI50,[29],1710 nM (inactive)
same,GI50,[30],1080 nM (active)
same,GI50,[66],1760 nM (inactive)
same,GI50,[31],1760 nM (inactive)
same,GI50,[33],1680 nM (inactive)
same,GI50,[34],1340 nM (inactive)
same,GI50,[35],1530 nM (inactive)
same,GI50,[36],1790 nM (inactive)
same,GI50,[37],1850 nM (inactive)
same,GI50,[38],2230 nM (inactive)
same,GI50,[39],1900 nM (inactive)
same,GI50,[67],1380 nM (inactive)
same,GI50,[40],1870 nM (inactive)
same,GI50,[41],1700 nM (inactive)
same,GI50,[43],1070 nM (active)
same,GI50,[44],1670 nM (inactive)
same,GI50,[45],1790 nM (inactive)
same,GI50,[46],1730 nM (inactive)
same,GI50,[47],1930 nM (inactive)
same,GI50,[48],1760 nM (inactive)
same,GI50,[49],1550 nM (inactive)
same,GI50,[51],1870 nM (inactive)
same,GI50,[52],1820 nM (inactive)
same,GI50,[54],2070 nM (inactive)
same,GI50,[68],1430 nM (inactive)
same,GI50,[56],1820 nM (inactive)
same,GI50,[57],1930 nM (inactive)
same,GI50,[58],1630 nM (inactive)
same,GI50,[59],1670 nM (inactive)
same,GI50,[61],1330 nM (inactive)
same,GI50,[62],1610 nM (inactive)
CC1(C)COC2(OC1)C1=NS(=O)(=O)CC13CCC2C3(C)C (stereo unspecified),GI50,[1],> 100000 nM (inactive)
same,GI50,[3],> 100000 nM (inactive)
same,GI50,[4],> 100000 nM (inactive)
same,GI50,[5],> 100000 nM (inactive)
same,GI50,[6],> 100000 nM (inactive)
same,GI50,[63],> 100000 nM (inactive)
same,GI50,[7],> 100000 nM (inactive)
same,GI50,[8],> 100000 nM (inactive)
same,GI50,[9],> 100000 nM (inactive)
same,GI50,[10],> 100000 nM (inactive)
same,GI50,[11],> 100000 nM (inactive)
same,GI50,[64],> 100000 nM (inactive)
same,GI50,[12],> 100000 nM (inactive)
same,GI50,[13],> 100000 nM (inactive)
same,GI50,[14],> 100000 nM (inactive)
same,GI50,[15],> 100000 nM (inactive)
same,GI50,[16],> 100000 nM (inactive)
same,GI50,[17],> 100000 nM (inactive)
same,GI50,[19],> 100000 nM (inactive)
same,GI50,[65],> 100000 nM (inactive)
same,GI50,[21],> 100000 nM (inactive)
same,GI50,[24],> 100000 nM (inactive)
same,GI50,[25],> 100000 nM (inactive)
same,GI50,[26],> 100000 nM (inactive)
same,GI50,[28],> 100000 nM (inactive)
same,GI50,[29],> 100000 nM (inactive)
same,GI50,[30],> 100000 nM (inactive)
same,GI50,[66],> 100000 nM (inactive)
same,GI50,[31],> 100000 nM (inactive)
same,GI50,[32],> 100000 nM
same,GI50,[33],> 100000 nM (inactive)
same,GI50,[34],> 100000 nM (inactive)
same,GI50,[35],> 100000 nM (inactive)
same,GI50,[36],> 100000 nM (inactive)
same,GI50,[37],> 100000 nM (inactive)
same,GI50,[38],> 100000 nM (inactive)
same,GI50,[39],> 100000 nM (inactive)
same,GI50,[67],> 100000 nM (inactive)
same,GI50,[40],> 100000 nM (inactive)
same,GI50,[41],> 100000 nM (inactive)
same,GI50,[43],> 100000 nM (inactive)
same,GI50,[44],> 100000 nM (inactive)
same,GI50,[45],> 100000 nM (inactive)
same,GI50,[46],> 100000 nM (inactive)
same,GI50,[47],> 100000 nM (inactive)
same,GI50,[48],> 100000 nM (inactive)
same,GI50,[49],> 100000 nM (inactive)
same,GI50,[51],> 100000 nM (inactive)
same,GI50,[52],> 100000 nM (inactive)
same,GI50,[54],> 100000 nM (inactive)
same,GI50,[68],> 100000 nM (inactive)
same,GI50,[56],> 100000 nM (inactive)
same,GI50,[57],> 100000 nM (inactive)
same,GI50,[69],> 100000 nM (inactive)
same,GI50,[58],> 100000 nM (inactive)
same,GI50,[59],> 100000 nM (inactive)
same,GI50,[61],> 100000 nM (inactive)
same,GI50,[62],> 100000 nM (inactive)
